Source: the supplement of paper PMC10307832

Tests used:
Assay in all cases: relative viability (nuclei count vs DMSO), 5 days (fraction); higher = more cells survive
CUDC-101 + Lapatinib = compound: C#Cc1cccc(Nc2ncnc3cc(OC)c(OCCCCCCC(=O)NO)cc23)c1 [CUDC-101] + CS(=O)(=O)CCNCc1ccc(-c2ccc3ncnc(Nc4ccc(OCc5cccc(F)c5)c(Cl)c4)c3c2)o1 [Lapatinib] (partner 2 µM)
How it was run: (§1)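 Medians of duplicate plates are given as relative viability. That measure is the nuclei count in treated wells divided by the count in vehicle wells. Counts were taken on 4× images of lung cancer cell lines in 1536-well plates, 5 days after pin-tool dosing the day after seeding with one drug alone or a fixed anchor-drug dose plus five library-drug doses (not always all listed) in √10 steps.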

CUDC-101 + Pemetrexed = compound: C#Cc1cccc(Nc2ncnc3cc(OC)c(OCCCCCCC(=O)NO)cc23)c1 [CUDC-101] + Nc1nc2[nH]cc(CCc3ccc(C(=O)N[C@@H](CCC(=O)O)C(=O)O)cc3)c2c(=O)[nH]1 [Pemetrexed] (partner 0.2 µM)
How it was run: as §1

[1] = compound: C1=CC=C2C(=C1)N=C(S2)C(C#N)C3=NC(=NC=C3)NCCC4=CN=CC=C4 + Nc1nc2[nH]cc(CCc3ccc(C(=O)N[C@@H](CCC(=O)O)C(=O)O)cc3)c2c(=O)[nH]1 [Pemetrexed] (partner 0.2 µM)
How it was run: as §1

Vandetanib + AZD7762 = compound: COc1cc2/c(=N/c3ccc(Br)cc3F)nc[nH]c2cc1OCC1CCN(C)CC1 [Vandetanib] + NC(=O)Nc1cc(-c2cccc(F)c2)sc1C(=O)N[C@H]1CCCNC1 [AZD7762] (partner 0.2 µM)
How it was run: as §1

Cell Line | relative viability (CUDC-101 + Lapatinib; first compound 0.01 µM) | relative viability (CUDC-101 + Lapatinib; first compound 0.03162 µM) | relative viability (CUDC-101 + Lapatinib; first compound 0.1 µM) | relative viability (CUDC-101 + Lapatinib; first compound 0.3162 µM) | relative viability (CUDC-101 + Lapatinib; first compound 1 µM) | relative viability (CUDC-101 + Pemetrexed; first compound 0.01 µM) | relative viability (CUDC-101 + Pemetrexed; first compound 0.03162 µM) | relative viability (CUDC-101 + Pemetrexed; first compound 0.1 µM) | relative viability (CUDC-101 + Pemetrexed; first compound 0.3162 µM) | relative viability (CUDC-101 + Pemetrexed; first compound 1 µM) | relative viability ([1]; first compound 0.005 µM) | relative viability ([1]; first compound 0.01581 µM) | relative viability ([1]; first compound 0.05 µM) | relative viability ([1]; first compound 0.1581 µM) | relative viability ([1]; first compound 0.5 µM) | relative viability (Vandetanib + AZD7762; first compound 0.02 µM) | relative viability (Vandetanib + AZD7762; first compound 0.06325 µM) | relative viability (Vandetanib + AZD7762; first compound 0.2 µM) | relative viability (Vandetanib + AZD7762; first compound 0.6325 µM) | relative viability (Vandetanib + AZD7762; first compound 2 µM)
NCI-H2405 | 1.25 | 1.05 | 1.19 | 1.27 | 0.917 | 1.07 | 1 | 1.05 | 1.17 | 0.967 | 1.14 | 0.998 | 1.07 | 1.1 | 0.98 | 0.703 | 0.651 | 0.674 | 0.698 | 0.571
NCI-H3122 | 1.07 | 0.984 | 0.882 | 1.02 | 1.01 | 0.19 | 0.21 | 0.191 | 0.209 | 0.22 | 0.187 | 0.197 | 0.206 | 0.214 | 0.194 | 0.917 | 1 | 1.01 | 0.926 | 1.01
PC-3 [JPC-3] | 0.419 | 0.462 | 0.443 | 0.364 | 0.32 | 1.12 | 1.06 | 0.842 | 0.439 | 0.393 | 1.14 | – | 1.08 | 1.37 | 0.914 | 0.766 | 0.729 | 0.591 | 0.512 | 0.419
PC-14 | 0.328 | 0.282 | 0.315 | 0.321 | 0.171 | 0.154 | 0.129 | 0.156 | 0.138 | 0.152 | 0.155 | 0.133 | 0.106 | 0.136 | 0.148 | 0.361 | 0.282 | 0.25 | 0.164 | 0.13
RERF-LC-KJ | 0.893 | 0.905 | 0.841 | 0.826 | 0.698 | 0.476 | 0.493 | 0.438 | 0.42 | 0.357 | 0.468 | 0.505 | 0.465 | 0.507 | 0.502 | – | 0.985 | 1.06 | 1.04 | 0.766
